Test results: patent US20140023611A1 (priority 2010, published 2014)
Marks after values point to notes of the source that are not given here.

Columns and labels:
[1] = tested on: uptake of phosphate from the intestine; experiment: In vivo assay: bolus phosphorus (phosphate) challenge; parameters: species or system Sprague-Dawley rats; conditions: Structure (V) examples, Table 4, rat; for Serum increase [Pi] mg/dL from baseline low PI state: mean ± SD
Procedure: (§1) By pretreating animals with a low phosphorus diet followed by the subsequent dosing of a phosphorus bolus, serum phosphorus levels were monitored after 30 minutes as a surrogate for intestinal phosphorus absorption. […] The in vivo bolus phosphorus challenge model used here mimics this model in rats.
Male, 7-week-old Sprague-Dawley rats (Charles-River laboratories international, Hollister, Calif.) were allowed to acclimatize for a minimum of 3 days before switching to a synthetic low-phosphorus diet (TD.85010, Harlan Teklad, Madison, Wis.) which contains 0.1% phosphorus and 0.6% calcium. At day 5, testing compounds or vehicle alone (as indicated) were orally administered at the indicated dose in a volume of 5 ml/kg, followed by a bolus gavage of monobasic sodium phosphate (1 mmol in 1 ml) 15 min after compound dosing. Serum was collected via retroorbital bleeding 30 min post phosphate bolus and phosphate levels were determined utilizing an ACE ALERA blood chemistry analyzer (Alfa Wassermann Diagnostic Technologies, West Caldwell, N.J.). […]
Male, 7-week-old Sprague-Dawley rats (Charles-River laboratories international, Hollister, Calif.) were allowed to acclimate for a minimum of 3 days before switching to a synthetic low-phosphorus diet (TD.85010, Harlan Teklad, Madison, Wis.) which contains 0.1% phosphorus and 0.6% calcium. At day 5, testing compounds or vehicle alone (as indicated) were orally administered at the indicated dose in a volume of 5 ml/kg, followed by a bolus gavage of monobasic sodium phosphate (1 mmol in 1 ml) 15 min after compound dosing. Serum was collected via retroorbital bleeding 30 min post phosphate bolus and phosphate levels were determined utilizing an ACE ALERA blood chemistry analyzer (Alfa Wassermann Diagnostic Technologies, West Caldwell, N.J.).
Serum was collected 30 minutes after gavage, and phosphate levels measured. […] The in vivo bolus phosphate challenge model used here mimics this model in rats.
Male, 7-week-old Sprague-Dawley rats (Charles-River laboratories international, Hollister, Calif.) were allowed to acclimatize for a minimum of 3 days before switching to a low-phosphorus diet (TD.85010, Harlan Teklad, Madison, Wis.) which contains 0.1% phosphorus and 0.6% calcium. At day 5, testing compounds or vehicle alone (as indicated) were orally administered at the indicated dose in a volume of 5 ml/kg, followed by a bolus gavage of monobasic sodium phosphate (1 mmol in 1 ml) 15 min after compound dosing. Serum was collected via retroorbital bleeding 30 min post phosphate bolus and serum phosphate levels were determined utilizing an ACE ALERA blood chemistry analyzer (Alfa Wassermann Diagnostic Technologies, West Caldwell, N.J.).
The representative data on effects of test compounds on serum phosphate levels are shown in Table 4 (data are expressed as mean±SD, with 6 animals per data point). The differences between groups were evaluated by one-way analysis of variance with Dunnett's post hoc tests.

NaPi2b = experiment: Competition with phosphate: Pi uptake assay repeated at 2.1 vs 0.1 mM phosphate; type: cell-based; conditions: potency at 2.1 vs 0.1 mM phosphate
In short: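 Phosphate uptake assay with compound, performed at 0.1 mM phosphate and repeated at 2.1 mM phosphate, with IC50 values determined at each phosphate concentration to assess competition with phosphate.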

[2] = tested on: Uptake of Phosphorus from the Intestine; experiment: In vivo bolus phosphorus challenge; parameters: species or system rat; conditions: Sprague-Dawley rats on low-phosphorus diet; oral Drug Dose 30, 15 min before phosphate bolus; serum 30 min post bolus
Procedure: as §1
Male, 7-week-old Sprague-Dawley rats (Charles-River laboratories international, Hollister, Calif.) were allowed to acclimatize for a minimum of 3 days before switching to a synthetic low-phosphorus diet (TD.85010, Harlan Teklad, Madison, Wis.) which contains 0.1% phosphorus and 0.6% calcium. At day 5, testing compounds or vehicle alone (as indicated) were orally administered at the indicated dose in a volume of 5 ml/kg, followed by a bolus gavage of monobasic sodium phosphate (1 mmol in 1 ml) 15 min after compound dosing. Serum was collected via retroorbital bleeding 30 min post phosphate bolus and phosphate levels were determined utilizing an ACE ALERA blood chemistry analyzer (Alfa Wassermann Diagnostic Technologies, West Caldwell, N.J.).
The extent of inhibition by test compounds on the elevation of serum phosphate levels in response to the bolus of phosphorus is shown in Table 12 (data are expressed as % Inhibition, with 6-10 animals per data point). The differences between groups were evaluated by one-way analysis of variance with Dunnett's post hoc tests.

[3] = tested on: 5/6 nephrectomy (5/6Nx) rat model of CKD; experiment: In vivo evaluation procedure: CKD rats, drug in chow; conditions: for FGF23 (serum FGF23 levels): ELISA
Procedure: To assess the ability of selected example compounds to impact the progression of chronic kidney disease (CKD), 5/6 nephrectomy (5/6Nx) rat model of CKD was used. […] Upon arrival, the surgeries and extent of kidney damage in the animals were assessed by measuring serum creatinine, P, Ca, and BUN. Based on this analysis, rats with inconsistent kidney function were removed from the study and the remainder of the cohort was divided in to evenly stratified test groups. The remaining animals were then placed on the same synthetic diet used in the drug-in-chow studies (Example 350), except the P levels were adjusted to 0.9% P. Drugs are blended into this chow to achieve the required dosing rate. At this time, rats were also started on an activated Vitamin D regimen in which they were injected intraperitoneally with calcitriol at 80 ng/kg three times a week. Once a week, serum was collected via retro orbital bleeding for analysis of serum P and creatinine utilizing an ACE ALERA blood chemistry analyzer. […] Unless otherwise indicated, the data shown is from the serum collected at 2 weeks after initiation of the treatment regimen. In addition, for study #3, during the third week of the study, the animals were placed in metabolic cages for two days, and urine collected for the final 24 hours.

[4] = oral 30 mg/kg, vehicle 5.0 ± 1.3
[5] = Study 3, 5/6Nx rats, data at 3 weeks

SMILES: COCCNC(=O)CCSCc1cccc(C(=O)Nc2ccc(N3CCCCC3)cc2C(=O)N/N=C/c2ccc(Cl)c(C(F)(F)F)c2)c1 [Ex. 49, (E)-N-(2-(2-(4-chloro-3-(trifluoromethyl)benzylidene)hydrazinecarbonyl)-4-(piperidin-1-yl)phenyl)-3-((3-(2-methoxyethylamino)-3-oxopropylthio)methyl)benzamide]
- % Decrease in serum [Pi] ([1]; oral 30 mg/kg): 24%
- Serum increase [Pi] mg/dL from baseline low PI state [1, 4]: 3.8 ± 0.8 mg/dL

SMILES: O=C(NCCN1CCOCC1)c1cccc(C(=O)Nc2ccc(N3CCCCC3)cc2C(=O)N/N=C/c2ccc(Cl)c(C(F)(F)F)c2)c1 [Ex. 53, (E)-N^1-(2-(2-(4-chloro-3-(trifluoromethyl)benzylidene)hydrazinecarbonyl)-4-(piperidin-1-yl)phenyl)-N3-(2-morpholinoethyl)isophthalamide]
- % Decrease in serum [Pi] ([1]; oral 10 mg/kg): 62%
- Serum increase [Pi] mg/dL from baseline low PI state ([1]; oral 10 mg/kg): 1.9 ± 1.1 mg/dL
- % Decrease in serum [Pi] ([1]; oral 30 mg/kg): 79%
- Serum increase [Pi] mg/dL from baseline low PI state [1, 4]: 1.1 ± 0.8 mg/dL

SMILES: O=C(O)c1cccc(SCc2cccc(C(=O)Nc3ccc(N4CCCCC4)cc3-c3cc(C(=O)NCc4cccc(C(F)(F)F)c4)ccn3)c2)c1 [Example 8.1, 3-(3-(4-(piperidin-1-yl)-2-(4-(3-(trifluoromethyl)benzylcarbamoyl)pyridin-2-yl)phenylcarbamoyl)benzylthio)benzoic acid]
- Competitive with respect to Pi? (NaPi2b): No

SMILES: CN(CCN1CCOCC1)C(=O)c1cccc(C(=O)Nc2ccc(N3CCCCC3)cc2-c2cc(C(=O)NCc3cccc(C(F)(F)F)c3)ccn2)c1 [Example 80, N1-Methyl-N1-(2-morpholinoethyl)-N3-(4-(piperidin-1-yl)-2-(4-((3-(trifluoromethyl)benzyl)carbamoyl)pyridin-2-yl)phenyl)isophthalamide]
- Competitive with respect to Pi? (NaPi2b): No
- % Inhibition of Serum P elevation [2]: 20-30%

SMILES: CCN(CC)c1ccc(NC(=O)c2cccc(CSCCOCCOCCOCCOCCOCCOCCOCCOCCC(=O)O)c2)c(-c2cc(C(=O)NCc3cccc(C(F)(F)F)c3)ccn2)c1 [Example 166, 1-(3-(4-(diethylamino)-2-(4-(3-(trifluoromethyl)benzylcarbamoyl)pyridin-2-yl)phenylcarbamoyl)phenyl)-5,8,11,14,17,20,23,26-octaoxa-2-thianonacosan-29-oic acid]
- Ser P (serum P) ([3]; Study 2, 5/6Nx rats, 0.9% P diet + calcitriol, 2 weeks): 11 mg/dL
- Ser CRE (serum creatinine) ([3]; Study 2, 5/6Nx rats, 2 weeks): 1.2 mg/dL
- FGF23 (serum FGF23 levels) ([3]; Study 2, 5/6Nx rats, 2 weeks): 100000 pg/mL
- Ser CRE (serum creatinine) [3, 5]: 1.0^§ mg/dL
- Ser P (serum P) [3, 5]: 10^§ mg/dL
- FGF23 (serum FGF23 levels) ([3]; Study 3, 5/6Nx rats, data at 4 weeks): 1.2 × 10^5§§ pg/mL

SMILES: CCN(CC)c1ccc(NC(=O)c2cccc(CCCOCCOCCOCCOCCOCCOCCOCCOCCOC)c2)c(-c2cc(C(=O)N[C@H]3CCCc4ccccc43)ccn2)c1 [Example 261, (S)-2-(2-(3-(2,5,8,11,14,17,20,23,26-nonaoxanonacosan-29-yl)benzamido)-5-(diethylamino)phenyl)-N-(1,2,3,4-tetrahydronaphthalen-1-yl)isonicotinamide]
- Ser P (serum P) ([3]; Study 1, 5/6Nx rats, 0.9% P diet + calcitriol, 2 weeks): 9.7 mg/dL
- Ser CRE (serum creatinine) ([3]; Study 1, 5/6Nx rats, 2 weeks): 1.0 mg/dL
- FGF23 (serum FGF23 levels) ([3]; Study 1, 5/6Nx rats, 2 weeks): >15,000 pg/mL
